Five molecules from paper PMC4559364, “Triterpenoid profiling and functional characterization of the initial genes involved in isoprenoid biosynthesis in neem (Azadirachta indica)” (BMC Plant Biology, 2015) can be followed below.

What all share (assay type): biochemical
Test [1] deals with T1, AiFDS (Azadirachta indica, UniProt A0A088CNE3).
T1 construct: E. coli BL21(DE3); Ni-NTA
T1 sequence (A0A088CNE3 1-342): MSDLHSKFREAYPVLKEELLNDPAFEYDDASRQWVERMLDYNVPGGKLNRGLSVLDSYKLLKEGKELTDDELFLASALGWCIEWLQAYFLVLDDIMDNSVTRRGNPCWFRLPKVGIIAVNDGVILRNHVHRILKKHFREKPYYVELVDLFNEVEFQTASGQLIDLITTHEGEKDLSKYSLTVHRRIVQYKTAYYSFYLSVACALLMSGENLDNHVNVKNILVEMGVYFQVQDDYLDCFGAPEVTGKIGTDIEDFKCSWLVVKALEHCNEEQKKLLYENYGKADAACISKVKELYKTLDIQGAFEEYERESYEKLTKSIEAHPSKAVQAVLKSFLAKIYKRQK
Briefly: GC-MS of (E,E)-farnesol after alkaline phosphatase. The conditions noted are these: HEPES buffer, 30 °C, 2 h.

The target of test [2] is T2, AiGDS (Azadirachta indica, UniProt A0A088CND2).
T2 construct: E. coli; solubilised from inclusion bodies by pH 11 to 7 shift; Ni-NTA; homomeric type; mitochondrial targeting predicted
T2 sequence (A0A088CND2 1-420): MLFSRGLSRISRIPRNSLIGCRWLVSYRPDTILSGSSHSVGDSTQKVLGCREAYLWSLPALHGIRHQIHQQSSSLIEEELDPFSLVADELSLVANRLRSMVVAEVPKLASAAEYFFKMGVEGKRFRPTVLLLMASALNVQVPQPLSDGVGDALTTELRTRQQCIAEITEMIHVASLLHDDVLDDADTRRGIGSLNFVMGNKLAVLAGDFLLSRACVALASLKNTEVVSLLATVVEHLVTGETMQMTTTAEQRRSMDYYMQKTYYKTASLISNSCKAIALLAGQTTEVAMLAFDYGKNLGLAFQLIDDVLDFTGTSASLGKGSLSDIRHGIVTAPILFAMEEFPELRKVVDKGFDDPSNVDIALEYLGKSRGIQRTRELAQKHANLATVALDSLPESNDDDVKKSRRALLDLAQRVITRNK
Briefly: GC-MS of geraniol after alkaline phosphatase. The conditions noted are these: HEPES buffer, 30 °C, 2 h.

Test [3] concerns the target T3, full length AiSQS (Azadirachta indica, UniProt I1Z8B6).
T3 construct: gene SQS1; full-length, printed as 396 residues from 1176 bp ORF (these disagree), 44 kDa; pRSET-C, His6 tag; E. coli BL21 Star(DE3); glycerol/CHAPS, Ni-NTA
Briefly: GC-MS of squalene. The note with it: 100 μM FPP, 1 mM NADPH; 30 °C, 2 h.

Test [4] addresses T4, truncated AiSQS (Azadirachta indica, UniProt I1Z8B6).
T4 construct: gene SQS1; truncated: 15 N-terminal and 63 C-terminal residues deleted (end border uncertain, printed 396 residues and 1176 bp ORF disagree); pET28c, His6 tag; E. coli BL21(DE3); Ni-NTA; ~35 kDa
Put plainly: GC-MS of squalene. The conditions noted are these: 100 μM FPP, 1 mM NADPH; 30 °C, 2 h.

T3 sequence (I1Z8B6 entry or part of it): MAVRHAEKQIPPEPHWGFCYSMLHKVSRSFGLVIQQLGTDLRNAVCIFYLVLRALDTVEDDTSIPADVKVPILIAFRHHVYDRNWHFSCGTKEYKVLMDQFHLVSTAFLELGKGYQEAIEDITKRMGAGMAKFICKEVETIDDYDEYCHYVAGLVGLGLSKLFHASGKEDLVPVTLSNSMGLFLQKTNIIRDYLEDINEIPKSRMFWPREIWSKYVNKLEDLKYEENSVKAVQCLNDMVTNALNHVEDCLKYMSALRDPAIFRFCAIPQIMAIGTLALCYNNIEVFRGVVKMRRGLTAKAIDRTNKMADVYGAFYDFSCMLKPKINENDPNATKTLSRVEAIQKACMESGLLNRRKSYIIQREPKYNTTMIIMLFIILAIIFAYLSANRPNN
T4 sequence (I1Z8B6 entry or part of it): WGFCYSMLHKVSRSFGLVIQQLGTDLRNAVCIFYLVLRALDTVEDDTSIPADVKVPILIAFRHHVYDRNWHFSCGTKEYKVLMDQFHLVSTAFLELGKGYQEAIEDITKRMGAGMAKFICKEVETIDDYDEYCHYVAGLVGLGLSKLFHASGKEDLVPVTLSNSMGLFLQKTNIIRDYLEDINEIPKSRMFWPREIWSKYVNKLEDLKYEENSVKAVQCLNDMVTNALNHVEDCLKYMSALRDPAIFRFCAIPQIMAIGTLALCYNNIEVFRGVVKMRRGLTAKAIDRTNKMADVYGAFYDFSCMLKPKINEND

With `CC(C)=CCC/C(C)=C/COP(=O)(O)OP(=O)(O)O` [GPP], the “GC-MS of (E,E)-farnesol after alkaline phosphatase” value in test [1] (with IPP, GPP 100 μM) was “purified short-chain prenyltransferase was incubated with DMAPP/GPP and IPP followed by treatment with alkaline phosphatase”.
On to `CC(C)=CCOP(=O)(O)OP(=O)(O)O` [DMAPP], for which the “GC-MS of geraniol after alkaline phosphatase” value in test [2] (with IPP, DMAPP 100 μM) was “Purified recombinant AiGDS was incubated with equimolar concentration of IPP and DMAPP”.
Regarding `NC(=O)C1=CN([C@@H]2O[C@H](COP(=O)(O)OP(=O)(O)OC[C@H]3O[C@@H](n4cnc5c(N)ncnc54)[C@H](OP(=O)(O)O)[C@@H]3O)[C@@H](O)[C@H]2O)C=CC1` [NADPH], the GC-MS of squalene entry was “full length and truncated AiSQS with FPP in the presence of NADPH” in test [3]; “full length and truncated AiSQS with FPP in the presence of NADPH” in test [4].
For the molecule `C=C(C)CCOP(=O)(O)OP(=O)(O)O` [IPP], the “GC-MS of geraniol after alkaline phosphatase” value in test [2] (with DMAPP, IPP 100-200 μM) was “Purified recombinant AiGDS was incubated with equimolar concentration of IPP and DMAPP”. Also, the “GC-MS of (E,E)-farnesol after alkaline phosphatase” value in test [1] (with DMAPP or GPP, IPP 100-200 μM) was “purified short-chain prenyltransferase was incubated with DMAPP/GPP and IPP followed by treatment with alkaline phosphatase”.
On to `CC(C)=CCC/C(C)=C/CC/C(C)=C/COP(=O)(O)OP(=O)(O)O` [FPP], for which the GC-MS of squalene result is “full length and truncated AiSQS with FPP in the presence of NADPH” in test [3]; “full length and truncated AiSQS with FPP in the presence of NADPH” in test [4].
